Results published in US20250188123A1, “PROTEASE INHIBITORS” (Regents of the University of Minnesota, priority 2022, published 2025).

Columns and labels:
[1] = molecular target: thrombin (Homo sapiens, UniProt P00734); test: Activity at thrombin proteolytic enzyme; format: biochemical
[2] = molecular target: cathepsin B (Homo sapiens, UniProt P07858); test: Activity at cathepsin B proteolytic enzyme; format: biochemical
[3] = tested on: cultured rat hippocampal neurons expressing GFP-tagged P301S tau; test: Accumulation of P301S tau in dendritic spines of cultured hippocampal neurons; format: cell-based; conditions: 10 μM for 3 days
Source text: The disproportionate accumulation in dendritic spines of mutant tau linked to FTDP-17 depends upon tau-truncation by Casp2 (Zhao X, et al., Nat Med., 2016, 22, 1268-76). […] The P301S tau mutation linked to FTDP-17 (Bugiani O, et al., J Neuropathol Exp Neurol., 1999, 58, 667-677; and Lossos A, et al., J Neurol., 2003, 250, 733-740) was examined to determine whether Compound 1 could prevent the accumulation of tau in dendritic spines. Dissociated hippocampal neurons from postnatal day 0-1 rat pups were cultured. After 5-7 days in vitro (DIV), the neurons were co-transfected with plasmids encoding DsRed (to label neuronal morphology) and GFP-tagged wild-type or P301S mutant tau proteins (FIG. 2A), as previously described (Hoover B R, et al., Neuron., 2010, 68:1067-1081). Neurons at 17-18 DIV were incubated with 10 μM Compound 1 for 3 days and live neurons were imaged at 20-21 DIV.
For all cultured hippocampal neuron studies all human tau and DsRed constructs were expressed in the pRK5 vector and driven by the cytomegalovirus promoter (Clontech Inc.). Human tau proteins were N-terminally fused to enhance GFP (eGFP). The wild-type, native human tau construct encoded human four-repeat tau lacking the transcriptional-variant N-terminal sequences (0N4R) and contained exons 1, 4, 5, 7, 9-13, 14, and intron 13 (RRID: Addgene_46904). […]

Structure (SMILES): Cc1ccc2c(c1)CCN(C(=O)[C@@H](NC(=O)[C@H](CCCC(=O)O)NC(=O)C1Cc3ccccc3N1)C(C)C)[C@@H]2C(=O)N[C@H](C#N)CC(=O)O (stereo partly drawn) [Compound 1, (8)-6-(((S)-1-((8)-1-(((S)-2-carboxy-1-cyanoethyl)carbamoyl)-6-methyl-3,4-dihydroisoquinolin-2(1H)-yl)-3-methyl-1-oxobutan-2-yl)amino)-5-((S)-indoline-2-carboxamido)-6-oxohexanoic acid]
- activity at thrombin [1]: weak activity
- activity at cathepsin B [2]: weak activity
- density of dendritic spines ([3]; compared with untreated wild-type and P301S tau groups): no significant differences
- percentage of dendritic spines containing GFP-tagged tau ([3]; neurons expressing P301S tau, untreated P301S 75.5%, wild-type tau 21.9%): 24.8%
